In assay [1] the target is dopaminergic receptors D3 (Homo sapiens, UniProt P35462). Put plainly: Radioligand binding assay, dopaminergic D3 receptors. The following applies: test compound 1×10^−6 M. Put shortly:
(§1)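 Competition radioligand binding at human D2, D3 and D4.4 receptors, detected by scintillation counting; nonspecific binding defined with excess unlabelled ligand. Results as percent inhibition of control specific binding; IC50 by Hill-equation nonlinear regression; Ki via Cheng-Prusoff, with radioligand KD from Scatchard plot.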

The next assay deals with T1, receptors D4.4 (Homo sapiens, UniProt P21917).
T1 sequence (P21917 1-419): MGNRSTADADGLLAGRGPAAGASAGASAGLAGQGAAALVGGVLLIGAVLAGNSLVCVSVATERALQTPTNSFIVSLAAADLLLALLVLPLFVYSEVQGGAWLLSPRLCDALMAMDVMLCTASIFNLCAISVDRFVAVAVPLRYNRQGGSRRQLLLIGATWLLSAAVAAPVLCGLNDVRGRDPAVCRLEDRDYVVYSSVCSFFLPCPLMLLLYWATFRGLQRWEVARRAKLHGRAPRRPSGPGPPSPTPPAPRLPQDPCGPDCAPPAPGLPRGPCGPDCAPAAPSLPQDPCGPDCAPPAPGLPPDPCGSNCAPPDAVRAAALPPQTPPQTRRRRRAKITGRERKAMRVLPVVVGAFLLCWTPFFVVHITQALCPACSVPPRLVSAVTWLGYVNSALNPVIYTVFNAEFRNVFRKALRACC
Nature of the assay: Radioligand binding assay, dopaminergic D4 (D4.4) receptors. The settings on record: test compound 1×10^−6 M. In short, it runs like this: as §1

For a further assay, the target named is T2, 5-HT2A receptor (Homo sapiens, UniProt P28223).
T2 construct: purchased PerkinElmer
T2 sequence (P28223 whole entry): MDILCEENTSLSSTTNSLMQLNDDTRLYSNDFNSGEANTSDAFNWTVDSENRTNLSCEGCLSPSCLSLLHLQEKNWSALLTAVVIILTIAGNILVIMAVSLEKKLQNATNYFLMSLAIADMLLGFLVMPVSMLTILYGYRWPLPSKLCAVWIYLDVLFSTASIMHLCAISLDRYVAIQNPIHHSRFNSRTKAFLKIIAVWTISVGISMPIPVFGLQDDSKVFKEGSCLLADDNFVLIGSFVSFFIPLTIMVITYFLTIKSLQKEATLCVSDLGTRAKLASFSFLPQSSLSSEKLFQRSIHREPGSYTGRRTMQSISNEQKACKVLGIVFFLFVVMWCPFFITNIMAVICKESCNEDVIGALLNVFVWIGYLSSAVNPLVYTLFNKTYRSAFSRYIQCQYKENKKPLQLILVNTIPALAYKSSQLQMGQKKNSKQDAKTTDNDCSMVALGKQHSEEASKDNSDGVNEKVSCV
Nature of the assay: Radioligand binding assay, serotoninergic 5-HT2A receptors. The following applies: binding assay result in %, Table 5a. In short, it runs like this: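 Radioligand competition binding with scintillation counting; nonspecific binding defined by excess unlabelled ligand. Data as percent inhibition of control specific binding. IC50 by Hill-equation fit of competition curves; Ki by Cheng-Prusoff, with radioligand Kd from Scatchard plot.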

In a further assay the target is T3, 5-HT6 receptor (Homo sapiens, UniProt P50406).
T3 construct: purchased PerkinElmer
T3 sequence (P50406 whole entry): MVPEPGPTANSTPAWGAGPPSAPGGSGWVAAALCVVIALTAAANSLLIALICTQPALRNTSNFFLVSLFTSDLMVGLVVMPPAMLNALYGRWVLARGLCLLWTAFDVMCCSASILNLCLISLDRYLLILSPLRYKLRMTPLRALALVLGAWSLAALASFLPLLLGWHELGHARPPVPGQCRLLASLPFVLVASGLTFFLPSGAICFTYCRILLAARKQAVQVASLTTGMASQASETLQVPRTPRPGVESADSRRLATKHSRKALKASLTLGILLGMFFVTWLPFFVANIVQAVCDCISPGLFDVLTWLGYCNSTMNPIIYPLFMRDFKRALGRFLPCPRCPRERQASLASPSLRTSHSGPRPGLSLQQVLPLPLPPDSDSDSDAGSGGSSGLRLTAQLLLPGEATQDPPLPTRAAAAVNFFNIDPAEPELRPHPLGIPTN
Put plainly: Radioligand binding assay, serotoninergic 5-HT6 receptors.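 On 5-HT6 [%]: test compound at 1 µM.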 The following applies: for inhibition at 1 µM / 5-HT6 [%]: binding assay result in %, Table 5a. In short, it runs like this: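 Values are Ki from Cheng–Prusoff, taking IC50 from Hill nonlinear regression of competition curves and KD from a Scatchard plot. Specific binding was total minus binding with excess unlabelled ligand. Radioligand displacement was detected by scintillation counting, and data were also reported as percent of control specific binding.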

For assay [2], the system named is α1 adrenergic receptors (rat cerebral cortex). Put plainly: Radioligand binding assay, adrenergic α1 receptors. The settings on record: test compound 1×10^−6 M. Put shortly:
(§2)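 Values derive from radioligand displacement, with non-specific binding defined by excess cold ligand and detection by scintillation. Hill-fit IC50s were converted to Ki via Cheng-Prusoff using Scatchard-derived Kd; percent inhibition of control specific binding also reported.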

A further assay deals with T4, M3 muscarinic receptors (Homo sapiens, UniProt P20309).
T4 construct: expressed in transfected cells; host or cells: CHO cells
T4 sequence (P20309 whole entry): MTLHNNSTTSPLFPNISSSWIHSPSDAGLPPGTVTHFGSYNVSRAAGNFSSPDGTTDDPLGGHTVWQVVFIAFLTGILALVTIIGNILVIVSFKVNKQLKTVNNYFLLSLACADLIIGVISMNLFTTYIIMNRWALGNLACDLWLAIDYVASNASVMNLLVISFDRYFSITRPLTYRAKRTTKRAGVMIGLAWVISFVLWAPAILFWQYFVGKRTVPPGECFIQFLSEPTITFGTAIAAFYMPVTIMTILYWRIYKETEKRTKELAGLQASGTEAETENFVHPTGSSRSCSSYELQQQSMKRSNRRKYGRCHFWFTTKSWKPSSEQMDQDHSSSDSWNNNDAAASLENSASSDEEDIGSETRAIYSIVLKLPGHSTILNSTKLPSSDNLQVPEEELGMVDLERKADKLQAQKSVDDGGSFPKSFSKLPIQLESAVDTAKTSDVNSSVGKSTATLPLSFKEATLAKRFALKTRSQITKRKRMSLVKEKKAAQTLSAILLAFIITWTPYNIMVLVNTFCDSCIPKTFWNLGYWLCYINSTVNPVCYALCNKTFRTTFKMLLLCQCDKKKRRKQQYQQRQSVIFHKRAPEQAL
Put plainly: Radioligand binding assay, muscarinic M3 receptors. The following applies: test compound 1×10^−6 M. Put shortly:
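Radioligand competition binding, detected by scintillation counting; non-specific binding defined with excess unlabelled ligand. Results given as % inhibition of control specific binding; IC50 from Hill-equation fit of competition curves, Ki via Cheng-Prusoff with radioligand KD from Scatchard plot.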

The next assay relates to σ receptors. Put plainly: Radioligand binding assay, σ receptors. The settings on record: rat cerebral cortex, [3H]DTG 8 nM. In short, it runs like this:
as §2

The target in assay [3] is 5-HT7 serotoninergic receptors (Homo sapiens, UniProt P34969). Put plainly: Cellular functional assay, 5-HT7 serotoninergic receptors. Type of assay: cell-based. The settings on record: for 5-HT7 ag [%]: agonist mode, percent of control specific agonist response; for Kb: apparent dissociation constant, modified Cheng Prusoff equation, read-out: 5-HT7 antag Kb; for 5-HT7 antag [%]: antagonist mode. The method, then: The results are expressed as a percent of control specific agonist response ((measured specific response/control specific agonist response)×100) obtained in the presence of the test compounds.
5-HT7 serotoninergic receptors, sequence (P34969 whole entry): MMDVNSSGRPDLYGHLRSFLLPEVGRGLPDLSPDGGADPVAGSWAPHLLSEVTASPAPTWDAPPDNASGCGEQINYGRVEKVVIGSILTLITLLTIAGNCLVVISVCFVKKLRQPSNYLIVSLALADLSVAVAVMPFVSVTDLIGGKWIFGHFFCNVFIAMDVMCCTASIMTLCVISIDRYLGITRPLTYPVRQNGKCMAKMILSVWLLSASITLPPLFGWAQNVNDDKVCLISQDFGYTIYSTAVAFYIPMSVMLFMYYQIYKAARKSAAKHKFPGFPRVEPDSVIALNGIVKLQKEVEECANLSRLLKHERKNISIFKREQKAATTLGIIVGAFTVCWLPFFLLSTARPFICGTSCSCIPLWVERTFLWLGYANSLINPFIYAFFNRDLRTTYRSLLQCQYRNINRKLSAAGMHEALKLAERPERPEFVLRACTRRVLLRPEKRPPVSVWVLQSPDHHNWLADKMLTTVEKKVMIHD
The EC50 values (concentration producing a half-maximal specific response) and IC50 values (concentration causing a half-maximal inhibition of the control specific agonist response) were determined by non-linear regression analysis of the concentration-response curves generated with mean replicate values using Hill equation curve fitting (Y=D+[(A−D)/(1+(C/C50)nH)], where Y=specific response, D=minimum specific response, A=maximum specific response, C=compound concentration, and C50=EC50 or IC50, and nH=slope factor). This analysis was performed using a software developed at Cerep (Hill software) and validated by comparison with data generated by the commercial software SigmaPlot® 4.0 for Windows® (© 1997 by SPSS Inc.).
For the antagonists, the apparent dissociation constants (Kb) were calculated using the modified Cheng Prusoff equation (Kb=IC50/(1+(A/EC50A)), where A=concentration of reference agonist in the assay, and EC50A=EC50 value of the reference agonist).

dopaminergic receptors D3, sequence (P35462 whole entry): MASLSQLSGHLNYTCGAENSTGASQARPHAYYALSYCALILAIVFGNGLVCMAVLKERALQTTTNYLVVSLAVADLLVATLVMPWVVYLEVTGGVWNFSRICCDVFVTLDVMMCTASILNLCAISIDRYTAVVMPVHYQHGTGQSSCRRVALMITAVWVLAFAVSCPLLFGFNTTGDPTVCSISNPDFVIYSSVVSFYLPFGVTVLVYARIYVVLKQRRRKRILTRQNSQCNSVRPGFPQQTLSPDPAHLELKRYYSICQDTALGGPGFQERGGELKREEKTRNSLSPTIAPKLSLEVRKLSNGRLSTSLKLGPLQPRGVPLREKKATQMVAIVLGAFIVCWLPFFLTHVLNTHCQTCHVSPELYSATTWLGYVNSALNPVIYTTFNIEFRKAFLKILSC

For `O=S(=O)(NC1CCN(CCCc2noc3cc(F)ccc23)C1)c1ccc2cc(Cl)ccc2c1` (stereo not shown) [Compound 23, 6-Chloro-N-[1-[3-(6-fluoro-1,2-benzoxazol-3-yl)propyl]pyrrolidin-3-yl]naphthalene-2-sulphonamide], the inhibition at 1 µM came to 95% in assay [1]; 55% on receptors D4.4; 99% at 5-HT2A receptor; 97% at 5-HT6 receptor; 10% at M3 muscarinic receptors. The “α1 [%]” value in assay [2] amounted to 64%. The “σ [%]” value with σ receptors is 61%. Also, the “5-HT7 ag [%]” value in assay [3] is on record as −2%.
As to `O=S(=O)(NC1CCN(CCCc2noc3cc(F)ccc23)C1)c1cc2ccccc2s1` (stereo not shown) [Compound 25, N-[1-[3-(6-Fluoro-1,2-benzoxazol-3-yl)propyl]pyrrolidin-3-yl]-benzothiophene-2-sulphonamide], the inhibition at 1 µM in assay [1] was determined as 97%; at receptors D4.4 it was 84%; at 5-HT2A receptor it was 102%; at 5-HT6 receptor it was 95%; on M3 muscarinic receptors, 23%. Also, in assay [2], the “α1 [%]” value is 85%. Moreover, in the assay with σ receptors, the “σ [%]” value is listed as 70%. For the same molecule, in assay [3], the “5-HT7 ag [%]” value is −2%. Also, the Kb in assay [3] is 1.4 nM.
Take `Cc1c(S(=O)(=O)NC2CCN(CCCc3noc4cc(F)ccc34)C2)sc2ccc(F)cc12` (stereo not shown) [Compound 28, 5-Fluoro-N-[1-[3-(6-fluoro-1,2-benzoxazol-3-yl)propyl]pyrrolidin-3-yl]-3-methyl-benzothiophene-2-sulphonamide]: the inhibition at 1 µM was determined as 96% in assay [1]; 75% on receptors D4.4; 101% at 5-HT2A receptor; 96% on 5-HT6 receptor; 13% on M3 muscarinic receptors. Besides, the “α1 [%]” value in assay [2] is listed as 70%. Further, the “σ [%]” value in the assay on σ receptors turned out to be 70%. Moreover, the “5-HT7 ag [%]” value in assay [3] is recorded as −3%.
On to `O=S(=O)(NC1CCN(CCCc2noc3cc(F)ccc23)CC1)c1cccc2ccccc12` [Compound 34, N-[1-[3-(6-Fluoro-1,2-benzoxazol-3-yl)propyl]-4-piperidine]-naphthalene-1-sulphonamide], for which the inhibition at 1 µM in assay [1] came to 58%; on receptors D4.4, 37%; at 5-HT2A receptor, 98%; on 5-HT6 receptor it was 40%; on M3 muscarinic receptors it was 12%. Besides, in assay [2], the “α1 [%]” value stood at 91%. For the same molecule, the “σ [%]” value in the assay on σ receptors is reported as 50%. Besides, in assay [3], the “5-HT7 ag [%]” value is listed as −1%. In addition, the Kb in assay [3] stood at 0.077 nM.
For the molecule `O=S(=O)(NC1CCN(CCOc2nsc3ccccc23)C1)c1ccc2ccccc2c1` (stereo not shown) [Compound 39, N-[1-[2-(1,2-Benzothiazol-3-yloxy)ethyl]pyrrolidin-3-yl]naphthalene-2-sulphonamide], the inhibition at 1 µM in assay [1] came to 95%; on receptors D4.4, 73%; on 5-HT2A receptor, 99%; at 5-HT6 receptor it was 92%; on M3 muscarinic receptors, 19%. The “α1 [%]” value in assay [2] is 29%. For the same molecule, the “σ [%]” value with σ receptors is reported as 54%. Besides, the “5-HT7 ag [%]” value in assay [3] is on record as 1%.
With `O=S(=O)(NC1CN(CCOc2cccc3[nH]ccc23)C1)c1cccc2ccccc12` [Compound 49, N-[1-[2-(1H-Indol-4-yloxy)ethyl]azetidin-3-yl]naphthalene-1-sulphonamide], the inhibition at 1 µM was found to be 106% in assay [1]; 82% on receptors D4.4; 82% at 5-HT2A receptor; 34% at 5-HT6 receptor; 11% at M3 muscarinic receptors. Also, in assay [2], the “α1 [%]” value is 89%. Further, in the assay with σ receptors, the “σ [%]” value turned out to be 50%. Further, in assay [3], the “5-HT7 ag [%]” value is 26%.
For `O=S(=O)(NC1CN(CCOc2cccc3[nH]ccc23)C1)c1ccc2ccccc2c1` [Compound 50, N-[1-[2-(1H-Indol-4-yloxy)ethyl]azetidin-3-yl]naphthalene-2-sulphonamide], the inhibition at 1 µM in assay [1] amounted to 104%; at receptors D4.4 it was 94%; on 5-HT2A receptor it was 97%; on 5-HT6 receptor it was 43%; on M3 muscarinic receptors it was 2%. Also, the “α1 [%]” value in assay [2] is listed as 88%. For the same molecule, the “σ [%]” value in the assay on σ receptors came out at 59%. Also, the “5-HT7 ag [%]” value in assay [3] was 21%.
For `O=S(=O)(NC1CCN(CCOc2cccc3[nH]ccc23)CC1)c1ccccc1` [Compound 55, N-[1-[2-(1H-Indol-4-yloxy)ethyl]-4-piperidine]benzenesulphonamide], the “D3 [%]” value in assay [1] is 93%. Besides, on receptors D4.4, the “D4.4 [%]” value was 31%. Also, on 5-HT2A receptor, the “5-HT2A [%]” value is 94%. The “5-HT6 [%]” value on 5-HT6 receptor was 3%. Also, the “α1 [%]” value in assay [2] stood at 51%. For the same molecule, on M3 muscarinic receptors, the “M3 [%]” value is recorded as −1%. Besides, the “σ [%]” value with σ receptors is 37%. In addition, in assay [3], the “5-HT7 ag [%]” value stood at 5% and the “5-HT7 antag [%]” value was 48%.
For `O=S(=O)(NC1CCN(CCCc2c[nH]c3ccc(F)cc23)C1)c1ccc2ccccc2c1` (stereo not shown) [Compound 80, N-[1-[3-(5-Fluoro-1H-indol-3-yl)propyl]pyrrolidin-3-yl]naphthalene-2-sulphonamide], the inhibition at 1 µM was 100% in assay [1]; 91% at receptors D4.4; 100% at 5-HT2A receptor; 96% on 5-HT6 receptor; 2% on M3 muscarinic receptors. Also, the Ki on 5-HT6 receptor (read-out: Inhibition constants Ki, 5-HT6) is 15 nM. Besides, in assay [2], the “α1 [%]” value is 50%. Further, the “σ [%]” value in the assay on σ receptors worked out at 81%. Further, the “5-HT7 ag [%]” value in assay [3] worked out at 3%.
For the molecule `O=S(=O)(NC1CN(CCOc2cccc3c2OCCO3)C1)c1ccc(Cl)cc1` [Compound 92, 4-Chloro-N-[1-[2-(2,3-dihydro-1,4-benzodioxan-8-yloxy)ethyl]azetidin-3-yl]benzene-sulphonamide], in assay [1], the “D3 [%]” value worked out at 60%. Moreover, on receptors D4.4, the “D4.4 [%]” value is 35%. The “5-HT2A [%]” value at 5-HT2A receptor stood at 60%. The “5-HT6 [%]” value on 5-HT6 receptor was found to be 23%. In addition, in assay [2], the “α1 [%]” value turned out to be 47%. Moreover, the “M3 [%]” value at M3 muscarinic receptors is 4%. In the assay on σ receptors, the “σ [%]” value was found to be 15%. In assay [3], the “5-HT7 ag [%]” value came to 18% and the “5-HT7 antag [%]” value is 69%.
Consider `Cc1cccc(S(=O)(=O)NC2CN(CCOc3cccc4c3OCCO4)C2)c1` [Compound 93, N-[1-[2-(2,3-Dihydro-1,4-benzodioxan-8-yloxy)ethyl]azetidin-3-yl]-3-methyl-benzenesulphonamide], for which the “D3 [%]” value in assay [1] amounted to 75%. For the same molecule, on receptors D4.4, the “D4.4 [%]” value was found to be 39%. The “5-HT2A [%]” value on 5-HT2A receptor is reported as 72%. Moreover, at 5-HT6 receptor, the “5-HT6 [%]” value is on record as 29%. The “α1 [%]” value in assay [2] amounted to 52%. Besides, the “M3 [%]” value at M3 muscarinic receptors was found to be 1%. Also, the “σ [%]” value with σ receptors is reported as 35%. For the same molecule, in assay [3], the “5-HT7 ag [%]” value is recorded as 13% and the “5-HT7 antag [%]” value was 76%.
As for `O=S(=O)(NC1CN(CCOc2cccc3c2OCCO3)C1)c1cccc2ccccc12` [Compound 94, N-[1-[2-(2,3-Dihydro-1,4-benzodioxan-8-yloxy)ethyl]azetidin-3-yl]-naphthalene-1-sulphonamide], the “D3 [%]” value in assay [1] turned out to be 105%. The “D4.4 [%]” value on receptors D4.4 worked out at 90%. Further, the “5-HT2A [%]” value at 5-HT2A receptor was 99%. For the same molecule, the “5-HT6 [%]” value at 5-HT6 receptor was 65%. The “α1 [%]” value in assay [2] turned out to be 87%. The “M3 [%]” value at M3 muscarinic receptors was 1%. Besides, the “σ [%]” value with σ receptors is recorded as 71%. In assay [3], the “5-HT7 ag [%]” value is given as 19% and the “5-HT7 antag [%]” value is 68%.

The values above are taken from patent US20140135310A1, “SULPHONAMIDE DERIVATIVES OF ALICYCLIC AMINES FOR THE TREATMENT OF CENTRAL NERVOUS SYSTEM DISEASES” (Adamed Sp. z o.o., priority 2011, published 2014).
